Source: publication PMC7395068, “The evolution of strategies to minimise the risk of human drug-induced liver injury (DILI) in drug discovery and development” (Archives of Toxicology, 2020)
Where two headings read alike, the source gives them in different places.

What was measured:
[1] = ref Chen 2011; cited from earlier work
hLiMTs [2] = test: Combined HCI (HCS) and cellular ATP 3D assay in hLiMTs
[3] = cited from earlier work
HepaRG spheroids = test: Combined HCI (HCS) and cellular ATP 3D assay in HepaRG spheroids; details: for AC50 / minimal effective concentration: Homo sapiens
rBsep = details: In vitro Assay; ref Dawson 2012; cited from earlier work
[4] = system: HepG2 cells, primary human hepatocytes; details: In vitro Assay; ref Garside 2014; cited from earlier work
human hepatocytes = details: cited from earlier work
[5] = system: HepG2 C3A spheroid, BSEP, Glu/Gal in HepG2 cells, bioactivation; details: cited from earlier work
[6] = system: THLE-Null and THLE-3A4 cells; details: In vitro Assay; ref Gustafsson 2014; cited from earlier work
HepG2 cells [7] = details: In vitro Assay; ref Tolosa 2012; cited from earlier work
[8] = system: primary human hepatocytes, NIH3T3 fibroblasts, BSEP, CYP3A4; details: cited from earlier work
PHH = details: cited from earlier work
HepG2 cells [9] = details: cited from earlier work
hLiMTs [10] = details: cited from earlier work
[11] = plasma free fraction; cited from earlier work
[12] = Plasma free fraction (fu) and unbound Cmax (Cmax,u); format: in vitro ADME, human; details: unbound plasma Cmax
Procedure: The prediction of DILI severity was evaluated further using the 3D combined HCI assays using plasma-free fraction. The majority of fu values were obtained from literature, when unavailable in-house prediction was utilised. Unbound plasma Cmax concentrations (Cmax,u) were derived by multiplying total plasma Cmax with the corresponding free fraction (fu) for each compound.

Upcyte human hepatocytes = details: In vitro Assay; ref Tolosa 2019; cited from earlier work
[13] = system: THLE or HepG2 cells, isolated mitochondria, BSEP; details: cited from earlier work
PHH spheroids = details: cited from earlier work
HepG2 cells [14] = details: cited from earlier work; remark: listed apart in the source
[15] = read-out: Human plasma Cmax; total plasma Cmax.tot, median of 9 literature references; cited from earlier work
[16] = cited from earlier work; remark: listed apart in the source
[17] = Microtissue model structural based (HCI), combined HCS and ATP, MEC < 25 × Cmax.tot cut-off
[18] = In vitro Assay, ref Schadt 2015
[19] = In vitro Assay, ref Proctor 2017
[20] = Modeled in vitro assays (cytotoxicity, mitochondrial dysfunction, BSEP), ref Aleo et al. 2019
[21] = In vitro Assay, ref Persson 2013

## CN(Cc1cnc2nc(N)nc(N)c2n1)c1ccc(C(=O)N[C@@H](CCC(=O)O)C(=O)O)cc1 [methotrexate, reference compound]
[1]
  DILI Score (FDA) (1-8): 3
hLiMTs [2]; HCS endpoints only, 25 × Cmax.tot cut-off
  DILI prediction hLiMTs, HCI alone: detection
hLiMTs [2]; Homo sapiens, read-out: HCS endpoint AC50
  AC50: 16900 nM
hLiMTs [2]; Homo sapiens, read-out: HCS endpoint MEC
  minimal effective concentration: 0.703 µM
hLiMTs [2]; [17]
  DILI prediction hLiMTs (HCS-MEC): +VE (MEC < 25 × Cmax.tot cut-off)
hLiMTs [2]; cellular ATP only, 25 × Cmax.tot cut-off
  DILI prediction hLiMTs, ATP alone: unpredicted
hLiMTs [2]; hLiMTs, ATP endpoint, cut-off <25x Avg Cmax
  hLiMTs <25x Avg Cmax ATP: -ve
hLiMTs [2]; hLiMTs, ATP endpoint, cut-off <100x Avg Cmaxu
  hLiMTs <100x Avg Cmaxu ATP: -ve
hLiMTs [2]; hLiMTs, HCS endpoints, cut-off <25x Avg Cmax
  hLiMTs <25x Avg Cmax HCS: +ve
hLiMTs [2]; hLiMTs, HCS endpoints, cut-off <100x Avg Cmaxu
  hLiMTs <100x Avg Cmaxu HCS: +ve (<100x Avg Cmaxu)
hLiMTs [2]; hLiMTs, all endpoints (ATP and HCS), cut-off <25x Avg Cmax
  hLiMTs <25x Avg Cmax All: +ve
hLiMTs [2]; hLiMTs, all endpoints, Cmax max used
  hLiMTs Cmax max All: +ve
hLiMTs [2]; hLiMTs, all endpoints, Cmax min used
  hLiMTs Cmax min All: -ve
hLiMTs [2]; hLiMTs, all endpoints, cut-off <10 uM
  hLiMTs <10 uM All: +ve (<10 uM)
hLiMTs [2]; hLiMTs, all endpoints, cut-off <100x Avg Cmaxu
  hLiMTs <100x Avg Cmaxu All: +ve (<100x Avg Cmaxu)
[3]; Chen et al. 2016 or literature alignment, ref Chen et al. 2016
  Assigned DILI category: 3
[3]; […]
  In vivo DILI: +VE
[3]; ref Aleo 2019
  In vivo DILI: +VE
[3]; ref Dawson 2012
  In vivo DILI: +VE
[3]; ref Garside 2014
  In vivo DILI: +VE
[3]; ref Gustafsson 2014
  In vivo DILI: +VE
[3]; ref O'Brien 2006
  In vivo DILI: +VE
[3]; ref Persson 2013
  In vivo DILI: +VE
[3]; ref Proctor 2017
  In vivo DILI: +VE
[3]; ref Schadt 2015
  In vivo DILI: +VE
[3]; ref Tolosa 2012
  In vivo DILI: +VE
[3]; ref Tolosa 2019
  In vivo DILI: +VE
[3]; ref Vorrink 2018
  In vivo DILI: +VE
[3]; ref Williams 2019
  In vivo DILI: +VE
[3]; ref Xu 2008
  In vivo DILI: +VE
HepaRG spheroids; HepaRG, ATP endpoint, cut-off <25x Avg Cmax
  HepaRG <25x Avg Cmax ATP: +ve
HepaRG spheroids; HepaRG, ATP endpoint, cut-off <100x Avg Cmaxu
  HepaRG <100x Avg Cmaxu ATP: +ve (<100x Avg Cmaxu)
HepaRG spheroids; HepaRG, HCS endpoints, cut-off <25x Avg Cmax
  HepaRG <25x Avg Cmax HCS: +ve
HepaRG spheroids; HepaRG, HCS endpoints, cut-off <100x Avg Cmaxu
  HepaRG <100x Avg Cmaxu HCS: +ve (<100x Avg Cmaxu)
HepaRG spheroids; HepaRG, all endpoints (ATP and HCS), cut-off <25x Avg Cmax
  HepaRG <25x Avg Cmax All: +ve
HepaRG spheroids; HepaRG, all endpoints, Cmax max used
  HepaRG Cmax max All: +ve
HepaRG spheroids; HepaRG, all endpoints, Cmax min used
  HepaRG Cmax min All: +ve
HepaRG spheroids; HepaRG, all endpoints, cut-off <10 uM
  HepaRG <10 uM All: +ve (<10 uM)
HepaRG spheroids; HepaRG, all endpoints, cut-off <100x Avg Cmaxu
  HepaRG <100x Avg Cmaxu All: +ve (<100x Avg Cmaxu)
HepaRG spheroids; HepaRG, read-out: ATP endpoint AC50
  AC50: 200 nM
HepaRG spheroids; HepaRG, read-out: ATP endpoint MEC
  minimal effective concentration: 0.2 µM
HepaRG spheroids; HepaRG, read-out: HCS endpoint AC50
  AC50: 200 nM
HepaRG spheroids; HepaRG, read-out: HCS endpoint MEC
  minimal effective concentration: 0.2 µM
HepaRG spheroids; [17]
  DILI prediction HepaRG spheroids (HCS-MEC): +VE (MEC < 25 × Cmax.tot cut-off)
rBsep
  Inhibition of rBsep cutoff<1& cmax u>.2: -VE
  Inhibition of rBsep cutoff<3: -VE
[4]
  Cluster 1-6 +VE Assay: -VE
Human hepatocytes; In vitro Assay, ref Xu 2008
  Structural based (HCI): -VE
Human hepatocytes; Structural based (HCI), human hepatocytes, ref Xu et al. 2008
  DILI in vitro assay prediction, Xu (2008): -VE
[5]; Bayesian modeling, ref Williams et al. 2019
  Bayesian Machine Learning DILI prediction, Williams (2019): +VE
[5]; In vitro Assay, ref Williams 2019
  Bayesian Machine Learning: +VE
[6]
  THLE-Null: -VE
HepG2 cells [7]
  Structural based (HCI): +VE
[8]; BSEP & Metabolism based, ref Schadt et al. 2015
  DILI in vitro assay prediction, Schadt (2015): -VE
[8]; [18]
  Cellular toxicity (3T3 cells): -VE
  GSH adduct HML: -VE
  Hepatocyte cellular toxicity: -VE
  MitoTox 3T3: -VE
  TDI CYP3A4: -VE
  hBSEP inhibition: -VE
PHH; 2D PHH, ATP, IC50 threshold 100 µM, ref Proctor et al. 2017
  PHH/100uM, Proctor (2017): -VE
PHH; [19]
  PHH ATP <100uM: -VE
HepG2 cells [9]; In vitro Assay, ref O'Brien 2006
  Structural based (HCI): +VE
HepG2 cells [9]; Structural based (HCI), HepG2, ref O'Brien et al. 2006
  DILI in vitro assay prediction, O'Brien (2006): +VE (lowest HCI endpoint IC50 (or in the absence of dose–response < 100 µM) < 30 × total human plasma exposure levels (Cmax.tot))
hLiMTs [10]; [19]
  hLiMTs ATP <100uM: -VE
hLiMTs [10]; hLiMTs, ATP, IC50 threshold 100 µM, ref Proctor et al. 2017
  hLiMTs/100uM, Proctor (2017): -VE
[11]
  fu: 0.500
[12]
  Human plasma Cmax,u: 2.315 µM
Upcyte human hepatocytes
  Upcytes multi donor assay 14day data: +VE
[13]; In vitro Assay, ref Aleo 2019
  Partition Hybrid HRM Score: +VE
  Ro2 Hybrid HRM Score: +VE
[13]; [20]
  Partition Hybrid HRM Score ≥4, Aleo (2019): +VE (Partition Hybrid HRM Score ≥4)
  Partition Hybrid HRM Score ≥8, Aleo (2019): -VE
  Rule of Two hybrid HRM Score ≥3, Aleo (2019): +VE (Rule of Two hybrid HRM Score ≥3)
  Rule of Two hybrid HRM Score ≥8, Aleo (2019): -VE
PHH spheroids; In vitro Assay, ref Vorrink 2018
  hLiMTs ATP <20 x Cmax: +VE (IC20 < 20 × Cmax.tot cut-off)
PHH spheroids; PHH spheroids, ATP, 14 days, IC20 < 20 × Cmax.tot, ref Vorrink et al. 2018
  DILI in vitro assay prediction, Vorrink (2018): +VE (IC20 < 20 × Cmax.tot cut-off)
HepG2 cells [14]; [21]
  Cluser analysis: -VE
  Structural based (HCI): -VE
HepG2 cells [14]; Structural based (HCI), HepG2, ref Persson et al. 2013
  DILI in vitro assay prediction, Persson (2013): -VE
[15]
  Cmax: 4.63 µM
[16]; LTKB DILIrank category, ref Chen et al. 2016
  DILI severity category (Chen et al. [2016]): Most
[16]; human DILI classification, LTKB DILIrank, ref Chen et al. 2016
  DILI severity category (Chen 2016): Most
[16]; human DILI severity, ref Chen et al.
  DILI severity category: Most
[16]; ref Chen 2016
  DILI +VE (5-8), DILI -VE (-4): +VE
  DILI severity category: vMost-DILI-Concern
